Reference: US5891882A, “Benzopyranopyrrole and benzopyranopyridine α-1 adenergic compounds” (priority 1997, dated 1999)
Counter-ions that a name gives are not always drawn.

Legend:
[1] = biological target: T1, α-1A adrenoreceptor (rat vas deferens) (Rattus norvegicus, UniProt P43140); test: Functional antagonism: inhibition of phenylephrine-induced contraction of rat vas deferens; type: cell-based; details: rat vas deferens, phenylephrine-induced contraction, Schild plot
T1 construct: from tissue; host or cells: rat vas deferens
T1 sequence (P43140 1-466): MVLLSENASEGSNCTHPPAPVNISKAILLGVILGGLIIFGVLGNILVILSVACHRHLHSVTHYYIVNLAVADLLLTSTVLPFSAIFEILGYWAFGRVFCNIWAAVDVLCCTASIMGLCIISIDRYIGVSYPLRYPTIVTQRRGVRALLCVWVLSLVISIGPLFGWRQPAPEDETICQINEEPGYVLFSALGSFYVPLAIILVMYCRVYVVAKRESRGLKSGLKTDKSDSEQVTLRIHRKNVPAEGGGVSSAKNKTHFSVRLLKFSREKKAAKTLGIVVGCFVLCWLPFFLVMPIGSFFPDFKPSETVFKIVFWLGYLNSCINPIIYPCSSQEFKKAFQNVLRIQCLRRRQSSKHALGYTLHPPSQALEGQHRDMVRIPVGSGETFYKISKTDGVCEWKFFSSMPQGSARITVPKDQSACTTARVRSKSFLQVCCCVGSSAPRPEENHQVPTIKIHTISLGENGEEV
Excerpt: Functional assays indicative of pharmacologically defined α-1 adrenoreceptors were used to further characterize compounds. Inhibition of phenylephrine (PE)-induced contraction of canine prostate smooth muscle can be correlated with α-1A adrenoreceptor activation. […] For each of these models, agonist dose response curves were repeated against increasing concentrations of test agent to derive a Schild plot [log ([…]) against log (molarity of test agent)] to determine the pA2.

[2] = biological target: T2, α-1 Adrenoceptors (Rat Aorta) (Rattus norvegicus, UniProt P23944); test: Functional antagonism at α-1 adrenoceptors, rat aorta; type: cell-based; details: read-out: In Vitro Characterization (pA2) Rat Aorta (converted)
T2 construct: Rat Aorta; from tissue; host or cells: rat aorta
T2 sequence (P23944 1-561): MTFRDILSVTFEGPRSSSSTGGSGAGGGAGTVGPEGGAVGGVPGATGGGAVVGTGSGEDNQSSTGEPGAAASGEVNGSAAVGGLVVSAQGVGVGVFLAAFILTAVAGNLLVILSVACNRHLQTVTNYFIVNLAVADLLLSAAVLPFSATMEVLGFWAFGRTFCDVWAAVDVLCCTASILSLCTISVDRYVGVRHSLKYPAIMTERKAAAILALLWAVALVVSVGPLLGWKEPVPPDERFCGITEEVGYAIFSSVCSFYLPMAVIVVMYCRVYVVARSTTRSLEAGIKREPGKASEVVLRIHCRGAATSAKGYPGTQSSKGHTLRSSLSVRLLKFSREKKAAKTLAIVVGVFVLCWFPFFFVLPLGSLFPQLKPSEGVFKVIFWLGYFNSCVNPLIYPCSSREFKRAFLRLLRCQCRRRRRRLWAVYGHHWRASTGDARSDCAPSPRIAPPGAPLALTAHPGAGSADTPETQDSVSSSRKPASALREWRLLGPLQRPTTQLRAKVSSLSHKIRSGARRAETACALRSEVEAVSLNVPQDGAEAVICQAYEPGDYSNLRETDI
In short: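 Phenylephrine dose-response curves for contraction were repeated against increasing test-agent concentrations. pA2 was derived by Schild plot [[…] vs log molarity of test agent].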

[3] = biological target: T3, α-1A adrenoreceptor (rat submaxillary gland) (Rattus norvegicus, UniProt P43140); test: In vitro [3H]-prazosin radioligand binding, pharmacologically defined α-1A adrenoreceptor (rat submaxillary gland)
T3 construct: Rat submaxillary glands were used for α-1A adrenoreceptors; from tissue; host or cells: rat submaxillary gland membranes
T3 sequence (P43140 1-466): T1 sequence (P43140 1-466)
Method: (§1) Additionally, binding affinity against the pharmacologically defined α-1A adrenoreceptor (rat submaxillary gland) was measured.
(§2) On the fifth day of culture, growth medium was removed from cells grown in roller bottles, and the cells were washed twice with PBS (Sigma, 120 mM NaCl, 2.7 mM KCl, 10 mM Na2 HPO4 --NaH2 PO4, pH=7.4). Cells were detached from the roller bottles by incubating for 15 minutes at 37° C. in a Tris-EDTA solution (10 mM Tris, 100 mM NaCl, 1 mM EDTA, pH=7.4). The cell suspension from each roller bottle was decanted into tared centrifuge tubes and kept on ice. An aliquot of each cell suspension was generally taken for cell counting. Cells were centrifuged at 3000×G for 5 min at 2°-4° C., washed with PBS and recentrifuged. The supernatant was decanted and the pellet weighed to determine the wet weight of cells. Cells were washed a final time in 40 vol 5 mM Tris-HCl, 5 mM EDTA, pH=7.7, and centrifuged at 40,000×G for 10 minutes. Cells were homogenized in 10 mL of 50 mM Tris-HCl, 5 mM EDTA (pH=7.4) and diluted to 40 mL/tube. Homogenates were centrifuged at 40,000×G for 10 minutes. The supernatant was decanted and the pellets rehomogenized in 50 mM Tris-HCl (pH=7.4) and centrifuged as before. The supernatant was decanted and the homogenate resuspended in 6.25 volumes (per gram wet weight) of 50 mM Tris-HCl and aliquots of the pooled homogenates frozen in liquid N2 and stored at -70° C. until the time of assay. Rat submaxillary glands were used for α-1A adrenoreceptors and were prepared essentially as described (Michel, A. D., Loury, D. N. and Whiting, R. L., Brit. J. Pharmacol. 98: 83-889 (1989)).
(§3) Receptor binding assays for α-1 adrenoreceptors were performed essentially as described by Greengrass and Bremner (Eur. J. Pharmacol. 55: 323-326 (1979)). […] Radioactivity was determined by standard liquid scintillation techniques. Data were analyzed as previously described (Hancock, A. A., Kyncl, J. J., Martin, Y. C. and DeBernardis, J. F., J Receptor Res. 8: 23-46 (1988)).

[4] = biological target: T4, α-1a adrenoreceptor (bovine) (Bos taurus, UniProt P18130); test: In vitro [3H]-prazosin radioligand binding, cloned α-1a adrenoreceptor expressed in LTK cells
T4 construct: expressed in transfected cells; cDNA from TULCO; membranes
T4 sequence (P18130 1-466): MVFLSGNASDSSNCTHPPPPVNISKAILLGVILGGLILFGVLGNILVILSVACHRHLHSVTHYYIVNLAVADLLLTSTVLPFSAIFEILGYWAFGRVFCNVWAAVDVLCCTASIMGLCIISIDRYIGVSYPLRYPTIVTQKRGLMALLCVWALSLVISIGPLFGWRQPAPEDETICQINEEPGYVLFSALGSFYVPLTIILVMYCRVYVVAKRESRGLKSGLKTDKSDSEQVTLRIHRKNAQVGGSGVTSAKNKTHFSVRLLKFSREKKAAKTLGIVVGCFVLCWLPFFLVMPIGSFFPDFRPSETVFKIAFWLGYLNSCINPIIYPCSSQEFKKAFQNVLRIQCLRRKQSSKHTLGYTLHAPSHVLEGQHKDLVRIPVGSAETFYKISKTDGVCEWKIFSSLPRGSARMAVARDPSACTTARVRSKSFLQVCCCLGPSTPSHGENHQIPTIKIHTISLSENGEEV
Excerpt: (§4) The cDNA clones encoding the α-1 adrenoreceptors (α-1a, α-1b, and α-1d) were obtained from TULCO (Triangle Universities Licensing Consortium, Research Triangle Park, N.C.) and inserted into the eukaryotic expression vector SnaB30. In this vector, expression of the adrenoreceptor gene is under the transcriptional control of an SV40 early promoter. Positive drug selection is provided by a neomycin-resistance gene. Mouse fibroblast cells (LTK) were transfected with the α1 expression plasmids and grown in Dulbecco's modified Eagle's medium (DMEM) containing 10% fetal calf serum and […]. Stable G418-resistant parental lines were generated, with successful expression of adrenoreceptor protein monitored using radioligand binding techniques. Stable single cell clones derived from the parental lines were screened in adrenoreceptor binding assays to identify clones having high adrenoreceptor density. Roller bottle cultures of the cloned lines were used to provide cell membranes for subsequent adrenoreceptor binding characterization studies. A cell line containing the SnaB30 vector expressing the human erythropoietin gene served as a negative control.
(§5) For adrenoreceptor binding assays, large scale membrane preparations were utilized in which 6 million cells were seeded into small (450 cm^2) Corning tissue culture roller bottles. 200 mL of DMEM containing 10% fetal calf serum and 300 μM G418 were added to each roller bottle. A 95% air/5% CO2 gas mixture (sterile) was injected into each roller bottle prior to sealing. The bottles were then incubated at 37° C. on a roller rack for 5 days. Cells were re-fed with fresh medium after 3 days in culture.
as §2, §3

[5] = biological target: T5, α-1b adrenoreceptor (hamster) (Mesocricetus auratus, UniProt P18841); test: In vitro [3H]-prazosin radioligand binding, cloned α-1b adrenoreceptor expressed in LTK cells
T5 construct: expressed in transfected cells; cDNA from TULCO; membranes
T5 sequence (P18841 1-515): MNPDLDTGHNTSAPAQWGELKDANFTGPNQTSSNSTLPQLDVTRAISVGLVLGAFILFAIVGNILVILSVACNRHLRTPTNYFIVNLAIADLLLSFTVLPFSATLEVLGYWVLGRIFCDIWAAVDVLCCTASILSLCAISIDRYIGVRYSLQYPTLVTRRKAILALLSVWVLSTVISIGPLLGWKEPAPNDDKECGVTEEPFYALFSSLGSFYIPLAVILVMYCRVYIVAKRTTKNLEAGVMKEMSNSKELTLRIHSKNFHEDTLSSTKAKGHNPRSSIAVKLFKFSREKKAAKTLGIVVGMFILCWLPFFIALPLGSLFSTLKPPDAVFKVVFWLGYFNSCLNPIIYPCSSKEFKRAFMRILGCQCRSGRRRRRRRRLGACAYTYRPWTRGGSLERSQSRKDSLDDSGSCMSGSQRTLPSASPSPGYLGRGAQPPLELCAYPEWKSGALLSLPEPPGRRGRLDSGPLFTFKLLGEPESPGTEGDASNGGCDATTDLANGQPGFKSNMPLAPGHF
Excerpt: as §4, §5, §2, §3

[6] = biological target: T6, α-1d adrenoreceptor (rat) (Rattus norvegicus, UniProt P23944); test: In vitro [3H]-prazosin radioligand binding, cloned α-1d adrenoreceptor expressed in LTK cells
T6 construct: expressed in transfected cells; cDNA from TULCO; membranes
T6 sequence (P23944 1-561): T2 sequence (P23944 1-561)
Method: as §1, §4, §5, §2, §3

`COc1cccc2c1[C@@H]1CN(CCCCn3c(=O)[nH]c4c(sc5nc(C)ccc54)c3=O)C[C@H]1CO2` [Example 45, 3-[4-((3aS,9bR)-trans-9-Methoxy-1,2,3,3a,4,9b-hexahydro-[1]-benzopyrano[3,4-c]pyrrol-2-yl)butyl]-7-methyl-pyrido[3',2':4,5]thieno[3,2-d]pyrimidine-2,4(1H,3H)-dione hydrochloride] was tested, and the “In Vitro Characterization (pA2) Rat Vas” value [1] was 9.59 and the Kb [2] was 0.209 nM.
`COc1cccc2c1[C@@H]1CCN(CCCn3c(=O)[nH]c4c(sc5ccccc54)c3=O)C[C@H]1CO2` (relative stereo) [Example 89, 3-[3-((±)-trans-10-Methoxy-1,3,4,4a,5,10b-hexahydro-2H-[1]-benzopyrano[3,4-c]pyrido-3-yl)propyl]-[1]-benzthieno[3,2-d]pyrimidine-2,4(1H,3H)-dione hydrochloride] gave a Ki [3] of 0.133 nM, a Ki [4] of 0.038 nM and a Ki [5] of 0.111 nM. It also gave a Ki [6] of 0.061 nM.
`COc1cc2[nH]c(=O)n(CCCCN3C[C@@H]4COc5cccc(OC)c5[C@H]4C3)c(=O)c2cc1OC` (racemic) [Example 82, 3-[4-((±)-trans-9-Methoxy-1,2,3,3a,4,9b-hexahydro-[1]-benzopyrano[3,4-c]pyrrol-2-yl)butyl]-6,7-dimethoxy-quinazoline-2,4(1H,3H)-dione dihydrochloride] showed a Ki [3] of 0.577 nM, a Ki [4] of 0.361 nM and a Ki [5] of 4.9 nM. The Ki [6] was 1.58 nM.
`COc1cccc2c1[C@@H]1CN(CCCCn3c(=O)[nH]c4c(sc5cnccc54)c3=O)C[C@H]1CO2` [Example 42, hydrochloride] was tested, and the “In Vitro Characterization (pA2) Rat Vas” value [1] was 9.59 and the Kb [2] was 0.0389 nM.
Compound `COc1cccc2c1[C@@H]1CCN(CCn3c(=O)[nH]c4c(sc5ccccc54)c3=O)C[C@H]1CO2` (relative stereo) [Example 90, 3-[2-((±)-trans-10-Methoxy-1,3,4,4a,5,10b-hexahydro-2H-[1]-benzopyrano[3,4-c]pyrido-3-yl)ethyl]-[1]-benzthieno[3,2-d]pyrimidine-2,4(1H,3H)-dione hydrochloride] has a Ki [3] of 0.323 nM, a Ki [4] of 0.135 nM and a Ki [5] of 2.29 nM. The Ki [6] was 0.439 nM.
In the case of `COc1cccc2c1[C@@H]1CN(CCCCn3c(=O)[nH]c4c(sc5ccncc54)c3=O)C[C@@H]1CO2` [Example 28, 3-[4-((3aR,9bR)-cis-9-Methoxy-1,2,3,3a,4,9b-hexahydro-[1]-benzopyrano[3,4-c]pyrrol-2-yl)butyl]-pyrido[3',3':4,5]thieno[3,2-d]pyrimidine-2,4(1H,3H)-dione hydrochloride], the “In Vitro Characterization (pA2) Rat Vas” value [1] is reported as 9.39 and the Kb [2] is reported as 0.195 nM.
Work on `COc1cccc2c1[C@@H]1CCN(CCCn3c(=O)[nH]c4c(sc5ncccc54)c3=O)C[C@H]1CO2` (relative stereo) [Example 84, 3-[3-(±)-trans-10-Methoxy-1,3,3,4a,5,10b-hexahydro-2H-[1]-benzopyrano[3,4-c]pyrido-3-yl)propyl]-pyrido[3',2':4,5]thieno[3,2-d]pyrimidine-2,4(1H,3H)-dione hydrochloride] yielded a Ki [3] of 0.479 nM, a Ki [4] of 0.617 nM and a Ki [5] of 4.92 nM. It also gave a Ki [6] of 1.12 nM.
For `COc1cc2[nH]c(=O)n(CCCCN3CC[C@H]4c5c(OC)cccc5OC[C@@H]4C3)c(=O)c2cc1OC` (relative stereo) [Example 86, 3-[4-((±)-trans-10-Methoxy-1,3,4,4a,5,10b-hexahydro-2H-[1]-benzopyrano[3,4-c]pyrido-3-yl)butyl]-6,7-dimethoxy-quinazoline-2,4(1H,3H)-dione hydrochloride], the Ki [3] was 0.54 nM, the Ki [4] was 0.202 nM and the Ki [5] was 1.71 nM. It also gave a Ki [6] of 0.398 nM.
